Data reported in patent US20240374581A1, “SALT TYPES OF TRICYCLIC TETRAHYDRO ISOQUINOLINE DERIVATIVE” (JIANGSU HENGRUI PHARMACEUTICALS CO., LTD., priority 2021, published 2024).

Tested on: ERα Y537S mutant-expressing MCF7 cells
Assay: Inhibition of proliferation of ERα mutant-expressing MCF7 cells
Assay type: cell-based
Conditions: Homo sapiens, 144 h, read-out: IC50, inhibitory effect on the proliferation of ERα mutant-expressing MCF7 cells
Source text: The mutant estrogen receptor α (ERα) Y537S of human ERα protein was obtained by site-directed mutagenesis in a two-primer PCR manner using the cDNA of wild-type ESR1 gene (Accession No. NM000125) as a template. The sequences of the primers used in the mutation are as follows (the underlined nucleotides are the sites of mutation): Y537S: F-AAGAACGTGGTGCCCCTCTCTGACCTGCTGCTGGAGATG (SEQ ID NO: 1); R-CATCTCCAGCAGCAGGTCAGAGAGGGGCACCACGTTCTT (SEQ ID NO: 2). The cDNA of the mutant ESR1 was cloned into the lentiviral vector of interest pCDH-CMV-MCS-EF1-Puro. The lentiviral plasmid bearing the mutant ESR1 gene sequence and the lentiviral packaging plasmid were then transfected into HEK-293T cells (ATCC, CRL-3216) by using Lipofectamine 3000 Transfection Reagent (ThermoFisher Scientific, Cat #L3000075). […]
The ERα mutant-expressing MCF7 cells were cultured in an MEM (GE Healthcare, SH30024.01) complete medium containing 10% fetal bovine serum. […] The plate was let stand at room temperature for 10 min, and the luminescence signal value was read using a multilabel microplate reader (PerkinElmer, VICTOR 3). The IC50 value for the inhibitory activity of the compound was calculated according to the compound concentration and the luminescence signal value and is shown in Table 3.

[2H]C1([2H])Oc2cc3c(cc2O1)[C@@H](c1ccc(NC2CN(CCCF)C2)cn1)N(CC(F)(F)CO)[C@H](C)C3 [Compound 1, 2,2-Difluoro-3-((5S,7R)-5-(5-((1-(3-fluoropropyl)azetidin-3-yl)amino)pyridin-2-yl)-7-methyl-7,8-dihydro-[1,3]dioxolo[4,5-g]isoquinolin-6(5H)-yl-2,2-d2)propan-1-ol]
IC50: 1.36 nM
